# Experimental data from patent publication US6737383B1, “Herbicidal oxadiazolidines” (priority 1999, dated 2004).
# Legend:
# corn = test: Test B pre/postemergence corn; assay type: in vivo, Zea mays
# How it was run: (§1)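 Herbicidal effect was estimated by eye on a ten-point control scale after plants spent twelve to sixteen days in a greenhouse following soil or foliar treatment. Foliar sprays targeted plants at one to four leaves; all doses were formulated in a non-phytotoxic solvent with surfactant.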
# giant foxtail = test: Test B pre/postemergence giant foxtail; assay type: in vivo, Setaria faberii
# How it was run: as §1
# purple nutsedge = test: Test B pre/postemergence purple nutsedge; assay type: in vivo, Cyperus rotundus
# How it was run: as §1
# soybean = test: Test B pre/postemergence soybean; assay type: in vivo, Glycine max
# How it was run: as §1
# surinam grass = test: Test B pre/postemergence surinam grass; assay type: in vivo, Brachiaria decumbens
# How it was run: as §1
# wheat = test: Test B pre/postemergence wheat; assay type: in vivo, Triticum aestivum
# How it was run: as §1
# wild oat = test: Test B pre/postemergence wild oat; assay type: in vivo, Avena fatua
# How it was run: as §1
# smallflower flatsedge = test: Test B flood test smallflower flatsedge; assay type: in vivo, Cyperus difformis
# How it was run: (§2)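 Each value is a visual injury score relative to controls, with 10 meaning complete control and 0 no effect. Evaluation took place twelve to sixteen days after the 2-leaf-stage plants were treated and kept in the greenhouse.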
# blackgrass = test: Test B pre/postemergence blackgrass; assay type: in vivo, Alopecurus myosuroides
# How it was run: as §1
# morningglory = test: Test B pre/postemergence morningglory; assay type: in vivo, Ipomoea hederacea
# How it was run: as §1
# cocklebur = test: Test B pre/postemergence cocklebur; assay type: in vivo, Xanthium strumarium
# How it was run: as §1
# crabgrass = test: Test B pre/postemergence crabgrass; assay type: in vivo, Digitaria sanguinalis
# How it was run: as §1
# duck salad = test: Test B flood test duck salad; assay type: in vivo, Heteranthera limosa
# How it was run: as §2
# sugar beet = test: Test B pre/postemergence sugar beet; assay type: in vivo, Beta vulgaris
# How it was run: as §1
# velvetleaf = test: Test B pre/postemergence velvetleaf; assay type: in vivo, Abutilon theophrasti
# How it was run: as §1
# rape = test: Test B pre/postemergence rape; assay type: in vivo, Brassica napus
# How it was run: as §1
# [1] = Postemergence, Rate 62 g/ha, scale 0 to 10, 0 is no effect, 10 is complete control
# [2] = Postemergence, Rate 250 g/ha, scale 0 to 10, 0 no effect, 10 complete control
# [3] = Preemergence, Rate 62 g/ha, scale 0 to 10 (0 no effect, 10 complete control)
# [4] = Preemergence, Rate 125 g/ha, scale 0 to 10 (0 no effect, 10 complete control)
# [5] = Preemergence, Rate 250 g/ha, scale of 0 to 10 where 0 is no effect and 10 is complete control
# [6] = Preemergence, Rate 500 g/ha, scale 0 (no effect) to 10 (complete control)
# [7] = Rate 125 g/ha, Postemergence, scale 0 to 10, 0 no effect, 10 complete control
# [8] = Rate 500 g/ha, Postemergence, scale 0 to 10, 0 no effect, 10 complete control
# [9] = Rate 62 g/ha, headed Pre-emergence (flood test species), scale 0 to 10 (0 no effect, 10 complete control)
# [10] = Rate 125 g/ha, Pre-emergence, flood test species, scale 0 to 10 where 0 is no effect and 10 is complete control
# [11] = Rate 250 g/ha, headed Pre-emergence (flood test species), scale 0 to 10 (0 no effect, 10 complete control)
# [12] = Rate 500 g/ha, headed Pre-emergence (flood test species), scale 0 to 10 (0 no effect, 10 complete control)
smiles,measurement,setting,value
Cc1ccccc1-n1c(=O)on(C(=O)N(Cc2ccccc2)C(C)C)c1=O [Compound 72],Corn plant response rating,corn; [1],0
same,Corn plant response rating,corn; [2],0
same,Corn plant response rating,corn; [3],0
same,"Plant response rating, Corn",corn; [4],0
same,"Plant response rating, Corn",corn; [5],0
same,Corn plant response rating,corn; [6],0
same,Corn plant response rating,corn; [7],0
same,Corn plant response rating,corn; [8],0
same,Giant foxtail plant response rating,giant foxtail; [1],0
same,Giant foxtail plant response rating,giant foxtail; [2],0
same,Giant foxtail plant response rating,giant foxtail; [3],0
same,"Plant response rating, Giant foxtail",giant foxtail; [4],0
same,"Plant response rating, Giant foxtail",giant foxtail; [5],2
same,Giant foxtail plant response rating,giant foxtail; [6],2
same,Giant foxtail plant response rating,giant foxtail; [7],0
same,Giant foxtail plant response rating,giant foxtail; [8],0
same,Nutsedge plant response rating,purple nutsedge; [1],0
same,Nutsedge plant response rating,purple nutsedge; [2],0
same,Nutsedge plant response rating,purple nutsedge; [3],0
same,"Plant response rating, Nutsedge",purple nutsedge; [4],0
same,"Plant response rating, Nutsedge",purple nutsedge; [5],0
same,Nutsedge plant response rating,purple nutsedge; [6],0
same,Nutsedge plant response rating,purple nutsedge; [7],0
same,Nutsedge plant response rating,purple nutsedge; [8],0
same,Soybean plant response rating,soybean; [1],0
same,Soybean plant response rating,soybean; [2],0
same,Soybean plant response rating,soybean; [3],0
same,"Plant response rating, Soybean",soybean; [4],0
same,"Plant response rating, Soybean",soybean; [5],0
same,Soybean plant response rating,soybean; [6],0
same,Soybean plant response rating,soybean; [7],0
same,Soybean plant response rating,soybean; [8],0
same,B. signalgrass plant response rating,surinam grass; [1],0
same,B. signalgrass plant response rating,surinam grass; [2],0
same,B. signalgrass plant response rating,surinam grass; [3],0
same,"Plant response rating, B. signalgrass",surinam grass; [4],0
same,"Plant response rating, B. signalgrass",surinam grass; [5],0
same,B. signalgrass plant response rating,surinam grass; [6],0
same,B. signalgrass plant response rating,surinam grass; [7],0
same,B. signalgrass plant response rating,"surinam grass; Rate 500 g/ha, Postemergence, scale of 0 to 10 where 0 is no effect and 10 is complete control",0
same,Wheat plant response rating,wheat; [1],0
same,Wheat plant response rating,wheat; [2],0
same,Wheat plant response rating,wheat; [3],0
same,"Plant response rating, Wheat",wheat; [4],0
same,"Plant response rating, Wheat",wheat; [5],0
same,Wheat plant response rating,wheat; [6],0
same,Wheat plant response rating,wheat; [7],0
same,Wheat plant response rating,wheat; [8],0
same,Wild oats plant response rating,wild oat; [1],0
same,Wild oats plant response rating,wild oat; [2],0
same,Wild oats plant response rating,wild oat; [3],0
same,"Plant response rating, Wild oats",wild oat; [4],0
same,"Plant response rating, Wild oats",wild oat; [5],0
same,Wild oats plant response rating,wild oat; [6],0
same,Wild oats plant response rating,wild oat; [7],0
same,Wild oats plant response rating,wild oat; [8],0
same,S. Flatsedge plant response rating,smallflower flatsedge; [9],0
same,S. Flatsedge plant response rating,smallflower flatsedge; [10],0
same,S. Flatsedge plant response rating,smallflower flatsedge; [11],0
same,"Plant response rating, S. Flatsedge",smallflower flatsedge; [12],0
same,Blackgrass plant response rating,blackgrass; [1],0
same,Blackgrass plant response rating,blackgrass; [2],0
same,Blackgrass plant response rating,blackgrass; [3],0
same,"Plant response rating, Blackgrass",blackgrass; [4],0
same,"Plant response rating, Blackgrass",blackgrass; [5],0
same,Blackgrass plant response rating,blackgrass; [6],0
same,Blackgrass plant response rating,blackgrass; [7],0
same,Blackgrass plant response rating,blackgrass; [8],0
same,Morningglory plant response rating,morningglory; [1],0
same,Morningglory plant response rating,morningglory; [2],0
same,Morningglory plant response rating,morningglory; [3],0
same,"Plant response rating, Morningglory",morningglory; [4],0
same,"Plant response rating, Morningglory",morningglory; [5],0
same,Morningglory plant response rating,morningglory; [6],0
same,Morningglory plant response rating,morningglory; [7],0
same,Morningglory plant response rating,morningglory; [8],0
same,Cocklebur plant response rating,cocklebur; [1],0
same,Cocklebur plant response rating,cocklebur; [2],0
same,Cocklebur plant response rating,cocklebur; [3],0
same,"Plant response rating, Cocklebur",cocklebur; [4],0
same,"Plant response rating, Cocklebur",cocklebur; [5],0
same,Cocklebur plant response rating,cocklebur; [6],0
same,Cocklebur plant response rating,cocklebur; [7],0
same,Cocklebur plant response rating,cocklebur; [8],0
same,Crabgrass plant response rating,crabgrass; [1],0
same,Crabgrass plant response rating,crabgrass; [2],0
same,Crabgrass plant response rating,crabgrass; [3],0
same,"Plant response rating, Crabgrass",crabgrass; [4],0
same,"Plant response rating, Crabgrass",crabgrass; [5],0
same,Crabgrass plant response rating,crabgrass; [6],4
same,Crabgrass plant response rating,crabgrass; [7],0
same,Crabgrass plant response rating,crabgrass; [8],0
same,Ducksalad plant response rating,duck salad; [9],0
same,Ducksalad plant response rating,duck salad; [10],0
same,Ducksalad plant response rating,duck salad; [11],0
same,"Plant response rating, Ducksalad",duck salad; [12],0
same,Sugarbeets plant response rating,sugar beet; [1],0
same,Sugarbeets plant response rating,sugar beet; [2],0
same,Sugarbeets plant response rating,sugar beet; [3],0
same,"Plant response rating, Sugarbeets",sugar beet; [4],0
same,"Plant response rating, Sugarbeets",sugar beet; [5],0
same,Sugarbeets plant response rating,sugar beet; [6],0
same,Sugarbeets plant response rating,sugar beet; [7],0
same,Sugarbeets plant response rating,sugar beet; [8],0
same,Velvetleaf plant response rating,velvetleaf; [1],0
same,Velvetleaf plant response rating,velvetleaf; [2],0
same,Velvetleaf plant response rating,velvetleaf; [3],0
same,"Plant response rating, Velvetleaf",velvetleaf; [4],0
same,"Plant response rating, Velvetleaf",velvetleaf; [5],0
same,Velvetleaf plant response rating,velvetleaf; [6],0
same,Velvetleaf plant response rating,velvetleaf; [7],0
same,Velvetleaf plant response rating,velvetleaf; [8],0
same,Rape plant response rating,rape; [1],0
same,Rape plant response rating,rape; [2],0
same,Rape plant response rating,rape; [3],0
same,"Plant response rating, Rape",rape; [4],0
same,"Plant response rating, Rape",rape; [5],0
same,Rape plant response rating,rape; [6],0
same,Rape plant response rating,rape; [7],0
same,Rape plant response rating,rape; [8],0
